Measurements reported in ChEMBL document CHEMBL1146323, “Design, synthesis, and evaluation of efflux substrate-metal chelator conjugates as potential antimicrobial agents” (2007).
Values after ≈ are worked out from the molar mass of the structure shown. Active and inactive are the calls of the source. The calls are words filed in the database; no cut-off is given here.

Key:
[1] = test system: Bacillus subtilis; assay: Antimicrobial activity against Bacillus subtilis; assay type: functional
[2] = test system: Escherichia coli; assay: Antimicrobial activity against Escherichia coli MC4100 assessed as inhibition zone at >2 mg/mL; assay type: functional, organism-based
[3] = test system: Escherichia coli; assay: Antimicrobial activity against Escherichia coli MC4100; assay type: functional

Structure (SMILES)	MIC [1]	MIC [3]	Activity [2]
c1ccc2c(c1)Nc1ccccc1S2 [PHENOTHIAZINE]	500 µg/mL (≈ 2510 µM)		
O=C(CCN1c2ccccc2Sc2ccc(C(F)(F)F)cc21)NCc1ccc(CN2CCOCCOCCOCCOCC2)cc1	500 µg/mL (≈ 758 µM)		inactive
O=C(CN1c2ccccc2Sc2ccccc21)NCc1ccc(CN2CCCNCCNCCCNCC2)cc1	7.8 µg/mL (≈ 14 µM)	2000 µg/mL (≈ 3580 µM)	
O=C(CCN1c2ccccc2Sc2ccccc21)NCc1ccc(CN(Cc2ccccn2)Cc2ccccn2)cc1	30 µg/mL (≈ 52.5 µM)		inactive
O=C(CCCCCN1c2ccccc2Sc2ccccc21)NCc1ccc(CN(Cc2ccccn2)Cc2ccccn2)cc1	7.8 µg/mL (≈ 12.7 µM)		inactive
O=C(CCN1c2ccccc2Sc2ccccc21)OCc1ccc(-c2cc(-c3ccccn3)nc(-c3ccccn3)c2)cc1			inactive
NC[C@H]1O[C@H](O[C@H]2[C@H](O)[C@@H](O[C@H]3O[C@H](CO)[C@@H](O)[C@H](N)[C@H]3O)[C@H](N)C[C@@H]2N)[C@H](O)[C@@H](O)[C@@H]1O [KANAMYCIN]	< 3 µg/mL		
O=C(CCCCCN1c2ccccc2Sc2ccccc21)NCc1ccc(CN2CCOCCOCCOCCOCC2)cc1	60 µg/mL (≈ 94.7 µM)		inactive

Further compounds by falling MIC [1], results first:

MIC [1]	MIC [3]	Structure (SMILES)	Activity [2]
2000 µg/mL (≈ 3380 µM)		O=C(CCN1c2ccccc2Sc2ccccc21)NCc1ccc(CN2CCOCCOCCOCCOCC2)cc1	inactive
500 µg/mL (≈ 788 µM)		O=C(CCCCCN1c2ccccc2Sc2ccccc21)OCc1ccc(-c2cc(-c3ccccn3)nc(-c3ccccn3)c2)cc1	inactive
25 µg/mL (≈ 71.5 µM)		CC1(C)S[C@@H]2[C@H](NC(=O)[C@H](N)c3ccccc3)C(=O)N2[C@H]1C(=O)O [AMPICILLIN]	
16 µg/mL (≈ 25 µM)		O=C(CCN1c2ccccc2Sc2ccc(C(F)(F)F)cc21)NCc1ccc(CN(Cc2ccccn2)Cc2ccccn2)cc1	inactive
